Where a name gives a salt, the structure may show the parent alone.
Each compound was assayed against recombinant human PARP (Homo sapiens, UniProt P09874) (assay: Measurement of PARP enzymatic activity (transfer of radiolabeled ADP-ribose from NAD+ to protein acceptor)). Conditions: 3 uM; Table 3.
Format: biochemical
Method: PARP activity was monitored by transfer of radiolabeled ADP-ribose units from [^32]NAD^+ to a protein acceptor such as histone or PARP itself. […] The reactions were initiated by the addition of 100 μM NAD^+ supplemented with 2 uCi [^32]NAD^+/mL and maintained at room temperature for 12 minutes. […] The amount of acid-insoluble radioactivity, corresponding to polyADP-ribosylated protein, was quantitated in a Wallac MicroBeta scintillation counter.
Single-point inhibition data were calculated by comparing PARP, VEGFR2, or MLK3 activity in the presence of inhibitor to activity in the presence of DMSO only. Inhibition curves for compounds were generated by plotting percent inhibition versus log10 of the concentration of compound. IC50 values were calculated by nonlinear regression using the sigmoidal dose-response (variable slope) equation in GraphPad Prism as follows: y=bottom+(top−bottom)/(1+10^(log IC50^−x)*Hillslope) where y is the % activity at a given concentration of compound, x is the logarithm of the concentration of compound, bottom is the % inhibition at the lowest compound concentration tested, and top is the % inhibition at the highest compound concentration examined. The values for bottom and top were fixed at 0 and 100, respectively. IC50 values were reported as the average of at least three separate determinations.
For some compounds, inhibiting data is presented as percent inhibition at a specified concentration. Compounds are tabulated together with compound number, substituents, and enzyme inhibition data.

recombinant human PARP, sequence (P09874 whole entry): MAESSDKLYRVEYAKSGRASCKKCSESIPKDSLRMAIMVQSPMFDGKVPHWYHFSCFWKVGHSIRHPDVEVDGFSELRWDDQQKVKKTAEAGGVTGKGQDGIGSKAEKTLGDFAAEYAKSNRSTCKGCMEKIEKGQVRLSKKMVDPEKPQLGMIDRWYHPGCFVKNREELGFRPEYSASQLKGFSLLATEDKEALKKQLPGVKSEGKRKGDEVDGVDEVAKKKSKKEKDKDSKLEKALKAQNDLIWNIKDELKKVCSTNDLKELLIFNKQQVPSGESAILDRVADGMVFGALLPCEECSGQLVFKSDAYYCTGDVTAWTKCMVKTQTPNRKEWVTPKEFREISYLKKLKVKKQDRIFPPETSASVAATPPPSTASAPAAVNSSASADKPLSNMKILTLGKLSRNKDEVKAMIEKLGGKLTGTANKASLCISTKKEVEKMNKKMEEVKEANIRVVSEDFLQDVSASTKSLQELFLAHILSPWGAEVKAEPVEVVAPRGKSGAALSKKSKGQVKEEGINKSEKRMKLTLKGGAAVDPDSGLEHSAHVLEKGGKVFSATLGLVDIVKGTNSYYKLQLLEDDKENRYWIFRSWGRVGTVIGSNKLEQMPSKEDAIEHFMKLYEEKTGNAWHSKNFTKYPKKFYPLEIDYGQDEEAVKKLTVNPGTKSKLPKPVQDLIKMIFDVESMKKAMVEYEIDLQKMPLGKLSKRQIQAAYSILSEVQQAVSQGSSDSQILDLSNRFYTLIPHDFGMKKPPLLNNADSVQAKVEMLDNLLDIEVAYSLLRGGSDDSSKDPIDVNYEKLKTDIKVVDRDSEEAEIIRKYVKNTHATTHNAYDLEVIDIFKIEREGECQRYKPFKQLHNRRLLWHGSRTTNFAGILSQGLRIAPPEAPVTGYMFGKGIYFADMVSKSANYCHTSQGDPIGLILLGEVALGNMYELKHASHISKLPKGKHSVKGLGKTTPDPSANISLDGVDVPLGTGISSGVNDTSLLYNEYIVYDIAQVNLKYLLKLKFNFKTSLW

Row | SMILES | PARP percent inhibition @ 3 uM
1 | NCCCCC(N)C(=O)n1c2ccc(Br)cc2c2c3c(c4c(c21)CCC4)C(=O)NC3 [Compound 6i, 3-Bromo-11-L-lysyl-5,7,8,9,10,11-hexahydrocyclopent[a]pyrrolo[3,4-c]carbazole-7(6H)-one dihydrochloride] | [35% @

Same assay, conditions: PARP IC50 (nM), Table 2

Row | SMILES | IC50 [nM]
2 | O=C(NCc1nc(-c2ccc3[nH]c4c5c(c6c(c4c3c2)C(=O)NC6=O)CCC5)cs1)OCc1ccccc1 [Compound 3j] | 20
3 | O=C1NC(=O)c2c1c1c(c3[nH]c4ccc(-c5csc(CNC(=O)C6CC6)n5)cc4c23)CCC1 [Compound 3w] | 49
4 | O=C1NC(=O)c2c1c1c(c3[nH]c4ccc(-c5csc(CNC(=O)C6CCCC6)n5)cc4c23)CCC1 [Compound 3x] | 52

Same assay, conditions: Table 2; read-out: PARP IC50

Row | IC50 [nM] | SMILES
5 | 37 | O=C(NCc1ccc2[nH]c3c4c(c5c(c3c2c1)C(=O)NC5=O)CCC4)c1ccccc1 [Compound 2u, 3-(Benzoylaminomethyl)-5,7,8,9,10,11-hexahydrocyclopent[a]pyrrolo[3,4-c]carbazole-5(6H), 7-dione]
6 | 33 | CC(C)(C)OC(=O)NCC(=O)NCc1ccc2[nH]c3c4c(c5c(c3c2c1)C(=O)NC5=O)CCC4 [Compound 2v, 3-(N-(2-(N-Boc-amino)acetyl)aminomethyl)-5,7,8,9,10,11-hexahydrocyclopent[a]pyrrolo[3,4-c]carbazole-5(6H), 7-dione]
7 | 33 | CC(C)(C)OC(=O)NCCCC(=O)NCc1ccc2[nH]c3c4c(c5c(c3c2c1)C(=O)NC5=O)CCC4 [Compound 2w, 3-(N-(4-(N-Boc-amino)butanoyl)aminomethyl)-5,7,8,9,10,11-hexahydrocyclopent[a]pyrrolo[3,4-c]carbazole-5(6H), 7-dione]
8 | 45 | NCC(=O)NCc1ccc2[nH]c3c4c(c5c(c3c2c1)C(=O)NC5=O)CCC4 [Compound 2x, 3-(N-(2-(Amino)acetyl)aminomethyl)-5,7,8,9,10,11-hexahydrocyclopent[a]pyrrolo[3,4-c]carbazole-5(6H), 7-dione]
9 | 54 | NCCCC(=O)NCc1ccc2[nH]c3c4c(c5c(c3c2c1)C(=O)NC5=O)CCC4 [Compound 2y, 3-(N-(4-(Amino)butanoyl)aminomethyl)-5,7,8,9,10,11-hexahydrocyclopent[a]pyrrolo[3,4-c]carbazole-5(6H), 7-dione]
10 | 10 | COC(=O)CCC(=O)NCc1ccc2[nH]c3c4c(c5c(c3c2c1)C(=O)NC5=O)CCC4 [Compound 2z, 3-(N-(3-(Methoxycarbonyl)propanoyl)aminomethyl)-5,7,8,9,10,11-hexahydrocyclopent[a]pyrrolo[3,4-c]carbazole-5(6H), 7-dione]
11 | 25 | Nc1nc(-c2ccc3[nH]c4c5c(c6c(c4c3c2)C(=O)NC6=O)CCC5)cs1 [Compound 3a]
12 | 17 | O=C1NC(=O)c2c1c1c(c3[nH]c4ccc(-c5csc(NC6OC(CO)C(O)C(O)C6O)n5)cc4c23)CCC1 (centres unmarked) [Compound 3ab]
13 | 40 | Cc1nc(-c2ccc3[nH]c4c5c(c6c(c4c3c2)C(=O)NC6=O)CCC5)cs1 [Compound 3b]
14 | 84 | Cc1nc(-c2ccc3[nH]c4c5c(c6c(c4c3c2)C(=O)NC6=O)CCC5)c(Br)s1 [Compound 3c]
15 | 50 | Cc1sc(N)nc1-c1ccc2[nH]c3c4c(c5c(c3c2c1)C(=O)NC5=O)CCC4 [Compound 3d]
16 | 46 | CC(C)(C)OC(=O)N[C@@H](CCCNc1nc(-c2ccc3[nH]c4c5c(c6c(c4c3c2)C(=O)NC6=O)CCC5)cs1)C(=O)OC(C)(C)C [Compound 3e]
17 | 22 | NC(CCCNc1nc(-c2ccc3[nH]c4c5c(c6c(c4c3c2)C(=O)NC6=O)CCC5)cs1)C(=O)O (centres unmarked) [Compound 3f]
18 | 19 | NC(N)=Nc1nc(-c2ccc3[nH]c4c5c(c6c(c4c3c2)C(=O)NC6=O)CCC5)cs1 [Compound 3g]
19 | 54 | CNc1nc(-c2ccc3[nH]c4c5c(c6c(c4c3c2)C(=O)NC6=O)CCC5)cs1 [Compound 3h]
20 | 54 | CC(=O)Nc1nc(-c2ccc3[nH]c4c5c(c6c(c4c3c2)C(=O)NC6=O)CCC5)cs1 [Compound 3i]
21 | 42 | NCc1nc(-c2ccc3[nH]c4c5c(c6c(c4c3c2)C(=O)NC6=O)CCC5)cs1 [Compound 3k]
22 | 47 | CC(=O)Nc1nc(-c2ccc3[nH]c4c5c(c6c(c4c3c2)C(=O)NC6=O)CCC5)c[nH]1 [Compound 3l]
23 | 20 | CC(=O)NCc1nc(-c2ccc3[nH]c4c5c(c6c(c4c3c2)C(=O)NC6=O)CCC5)cs1 [Compound 3n]
24 | 20 | CCNC(=O)NCc1nc(-c2ccc3[nH]c4c5c(c6c(c4c3c2)C(=O)NC6=O)CCC5)cs1 [Compound 3o]
25 | 21 | CC(C)(C)S(=O)(=O)Cc1nc(-c2ccc3[nH]c4c5c(c6c(c4c3c2)C(=O)NC6=O)CCC5)cs1 [Compound 3p]
26 | 29 | CC(C)(C)OC(=O)Cc1nc(-c2ccc3[nH]c4c5c(c6c(c4c3c2)C(=O)NC6=O)CCC5)cs1 [Compound 3q]
27 | 56 | CC(C)CC(=O)NCc1nc(-c2ccc3[nH]c4c5c(c6c(c4c3c2)C(=O)NC6=O)CCC5)cs1 [Compound 3r]
28 | 56 | CCC(=O)NCc1nc(-c2ccc3[nH]c4c5c(c6c(c4c3c2)C(=O)NC6=O)CCC5)cs1 [Compound 3s]
29 | 32 | CC(C)C(=O)NCc1nc(-c2ccc3[nH]c4c5c(c6c(c4c3c2)C(=O)NC6=O)CCC5)cs1 [Compound 3t]

Row | IC50 [nM] | SMILES
30 | 42 | CCCC(=O)NCc1nc(-c2ccc3[nH]c4c5c(c6c(c4c3c2)C(=O)NC6=O)CCC5)cs1 [Compound 3u]
31 | 56 | CCCCC(=O)NCc1nc(-c2ccc3[nH]c4c5c(c6c(c4c3c2)C(=O)NC6=O)CCC5)cs1 [Compound 3v]
32 | 60 | CC(C)(C)C(=O)OCc1nc(-c2ccc3[nH]c4c5c(c6c(c4c3c2)C(=O)NC6=O)CCC5)cs1 [Compound 3y]
33 | 38 | CS(=O)(=O)Cc1nc(-c2ccc3[nH]c4c5c(c6c(c4c3c2)C(=O)NC6=O)CCC5)cs1 [Compound 3z]
34 | 12 | COC(=O)C1CCCN1CC(=O)c1ccc2[nH]c3c4c(c5c(c3c2c1)C(=O)NC5=O)CCC4 (centres unmarked) [Compound 4a]
35 | 12 | CC(C)(C)OC(=O)[C@@H]1CCCN1CC(=O)c1ccc2[nH]c3c4c(c5c(c3c2c1)C(=O)NC5=O)CCC4 [Compound 4b]
36 | 7 | O=C(CN1CCCC1C(=O)O)c1ccc2[nH]c3c4c(c5c(c3c2c1)C(=O)NC5=O)CCC4 (centres unmarked) [Compound 4c]
37 | 16 | CC(C)(C)OC(=O)NCCNC(=O)CCC(=O)c1ccc2[nH]c3c4c(c5c(c3c2c1)C(=O)NC5=O)CCC4 [Compound 4d]
38 | 22 | NCCNC(=O)CCC(=O)c1ccc2[nH]c3c4c(c5c(c3c2c1)C(=O)NC5=O)CCC4 [Compound 4e]
39 | 13 | O=C(CCC(=O)N1CCOCC1)c1ccc2[nH]c3c4c(c5c(c3c2c1)C(=O)NC5=O)CCC4 [Compound 4f]
40 | 9 | O=C(CCC(=O)c1ccc2[nH]c3c4c(c5c(c3c2c1)C(=O)NC5=O)CCC4)NCCO [Compound 4g]
41 | 7 | CC(C)(C)OC(=O)[C@@H]1CCCN1C(=O)CCC(=O)c1ccc2[nH]c3c4c(c5c(c3c2c1)C(=O)NC5=O)CCC4 [Compound 4h]
42 | 12 | CCN(CC)C(=O)CCC(=O)c1ccc2[nH]c3c4c(c5c(c3c2c1)C(=O)NC5=O)CCC4 [Compound 4i]
43 | 2 | O=C(CCC(=O)N1CCCC1C(=O)O)c1ccc2[nH]c3c4c(c5c(c3c2c1)C(=O)NC5=O)CCC4 (centres unmarked) [Compound 4j]
44 | 1 | O=C(O)c1nccnc1C(=O)c1ccc2[nH]c3c4c(c5c(c3c2c1)C(=O)NC5=O)CCC4 [Compound 4k]
45 | 17 | O=C1CCC(c2ccc3[nH]c4c5c(c6c(c4c3c2)C(=O)NC6=O)CCC5)=NN1 [Compound 4l]
46 | 12 | CN1N=C(c2ccc3[nH]c4c5c(c6c(c4c3c2)C(=O)NC6=O)CCC5)CCC1=O [Compound 4m]
47 | 2 | O=C(O)CCCC(=O)c1ccc2[nH]c3c4c(c5c(c3c2c1)C(=O)NC5=O)CCC4 [Compound 4n]
48 | 13 | NC(=O)[C@@H]1CCCN1C(=O)CCC(=O)c1ccc2[nH]c3c4c(c5c(c3c2c1)C(=O)NC5=O)CCC4 [Compound 4o]
49 | 10 | O=C(CCC(=O)N1CCCCC1)c1ccc2[nH]c3c4c(c5c(c3c2c1)C(=O)NC5=O)CCC4 [Compound 4p]
50 | 10 | CC(C)(C)OC(=O)N1CCN(C(=O)CCC(=O)c2ccc3[nH]c4c5c(c6c(c4c3c2)C(=O)NC6=O)CCC5)CC1 [Compound 4q]
51 | 15 | O=C(CCC(=O)N1CCNCC1)c1ccc2[nH]c3c4c(c5c(c3c2c1)C(=O)NC5=O)CCC4 [Compound 4r]
52 | 26 | O=C(CCC(=O)N1CCCCCCC1)c1ccc2[nH]c3c4c(c5c(c3c2c1)C(=O)NC5=O)CCC4 [Compound 4s]
53 | 16 | O=C(CCC(=O)N1CCCC1)c1ccc2[nH]c3c4c(c5c(c3c2c1)C(=O)NC5=O)CCC4 [Compound 4t]

Same assay, conditions: Table 3; read-out: PARP IC50

Row | IC50 [nM] | SMILES
54 | 62 | NCCCC[C@H](N)C(=O)N1C(=O)c2c3c(c4[nH]c5ccc(Cl)cc5c4c2C1=O)CCC3 [Compound 6f]
55 | 460 | N#Cc1ccc2c(c1)c1c3c(c4c(c1n2C(=O)[C@@H](N)CCCCN)CCC4)C(=O)NC3 [Compound 6j, 3-Cyano-11-L-lysyl-5,7,8,9,10,11-hexahydrocyclopent[a]pyrrolo[3,4-c]carbazole-7(6H)-one dihydrochloride]

Same assay, conditions: Table 18; read-out: PARP IC50

Row | IC50 [nM] | SMILES
56 | 10 | COCCOc1ccnc2[nH]c3c4c(c5c(c3c12)C(=O)NC5=O)CCC4 [Compound 8aa]

Reference: patent US8716493B2, “Multicyclic compounds and the use thereof” (Cephalon, Inc., priority 2000, dated 2014)
